From patent publication US20230147053A1, “FUSED N-HETEROCYCLIC COMPOUNDS AND METHODS OF USE THEREOF” (Araxes Pharma LLC, priority 2017, published 2023)

Biological target: T1, KRAS G12C 1-169, his-tagged protein, GDP-loaded (Homo sapiens, UniProt P01116, G12C)
T1 construct: KRAS G12C 1-169, his-tagged protein, GDP-loaded
Experiment: Biochemical assay: covalent binding (modification) of KRAS G12C measured by mass spectrometry
Conditions: covalent binding to KRAS G12C after a thirty minute incubation period
Method: Test compounds were prepared as 10 mM stock solutions in DMSO (Fisher cat #BP-231-100). KRAS G12C 1-169, his-tagged protein, GDP-loaded was diluted to 2 μM or 0.5 μM in buffer (20 mM Hepes, 150 mM NaCl, 1 mM MgCl2). Compounds were tested for activity as follows:
Compounds were diluted to 50× final test concentration in DMSO in 96-well storage plates. Compound stock solutions were vortexed before use and observed carefully for any sign of precipitation. Dilutions were as follow: • For 100 μM final compound concentration, compounds were diluted to 5000 μM (5 μL 10 mM compound stock+5 μL DMSO and mixed well by pipetting. • For 30 μM final compound concentration, compounds were diluted to 1500 μM (3 μL 10 mM compound stock+17 μL DMSO) and mixed well by pipetting. • For 10 μM final compound concentration, compounds were diluted to 500 μM (2 μL 10 mM compound stock+38 μL DMSO) and mixed well by pipetting. 49 μL of the stock protein solution was added to each well of a 96-well PCR plate (Fisher cat #1423027). 1 μl of the diluted 50× compounds were added to appropriate wells in the PCR plate using 12-channel pipettor. Reactions were mixed carefully and thoroughly by pipetting up/down with a 200 μL multi-channel pipettor. The plate was sealed well with aluminum plate seal, and stored in drawer at room temperature for 10 minutes, 30 minutes, 2 hours or 24 hours. 5 μL of 2% formic acid (Fisher cat #A117) in de-ionized H2O was then added to each well followed by mixing with a pipette. The plate was then resealed with aluminum seal and stored on dry ice until analyzed as described below.
The above described assays were analyzed by mass spectrometry according to one of the following two procedures:
The MS instrument is set to positive polarity, 2 GHz resolution, and low mass (1700) mode and allowed to equilibrate for 30 minutes. The instrument is then calibrated, switched to acquisition mode and the appropriate method loaded.
After another 30 minute equilibration time, a blank batch (i.e., buffer) is run to ensure equipment is operating properly. The samples are thawed at 37° C. for 10 minutes, briefly centrifuged, and transfer to the bench top. Wells A1 and H12 are spiked with 1 μL 500 μM internal standard peptide, and the plates centrifuged at 2000×g for 5 minutes. The method is then run and masses of each individual well recorded.
The masses (for which integration data is desired) for each well are pasted into the platemap and exported from the analysis. Masses for the internal standards are exported as well. The data at 50 ppm is extracted for the +19 charge state, and identity of well A1 is assigned using the internal standard spike and integrated. Peak data is exported as a TOF list and the above steps are repeated individually, for the +20, 21, 22, 23, 24, and 25 charge states.
The masses and peak intensities of KRAS G12C protein species were measured using a Dionex RSLCnano system (Thermo Scientific) connected to a Q Exactive Plus mass spectrometer (Thermo Scientific).
[…] of sample was each loaded onto a Aeris™ 3.6 μm WIDEPORE C4 200 A, LC Column 50×2.1 mm column maintained at 40° C. at a flow rate of 600 μL/min with […] (0.1% formic acid in acetonitrile). The liquid chromatography conditions were 20% solvent B for 1 minute, 20% to 60% solvent B for 1.5 minutes, 60% to 90% solvent for 0.5 minute, 90% solvent B for 0.2 minute, 90% to 20% solvent B for 0.2 minute, and then equilibrated for 1.6 minute before the following sample injection. The flow rate was maintained at 600 μL/min throughout the sample analysis.
The mass spectrometer was operated in profile mode at a resolution of 17500, 5 microscans, using 50 msec max injection time and an AGC target of 1×10^6, and a full mass range from 800-1850 m/z was recorded. The HCD trapping gas was optimized for maximum sensitivity for intact proteins. […]

SMILES | Binding %
C=CC(=O)N1CCC(c2ccc3c(c2)CCN(c2c(C)ccc4[nH]ncc24)C3=O)C1 (centres unmarked) [Compound 32, 6-(1-acryloylpyrrolidin-3-yl)-2-(5-methyl-1H-indazol-4-yl)-3,4-dihydroisoquinolin-1(2H)-one] | + (+ indicates binding activity up to 5%)
C=CC(=O)N1CC(c2ccc3c(c2)CN(c2cc(O)cc4ccccc24)C3=O)C1 [Compound 8, 5-(1-acryloylazetidin-3-yl)-2-(3-hydroxynaphthalen-1-yl)isoindolin-1-one] | +++ (+++ indicates binding activity greater than 50%)
C=CC(=O)N1CC(c2ccc3c(Nc4cc(O)cc5ccccc45)ncnc3c2)C1 [Compound 36, 1-(3-(4-((3-hydroxynaphthalen-1-yl)amino)quinazolin-7-yl)azetidin-1-yl)prop-2-en-1-one] | + (+ indicates binding activity up to 5%)
C=CC(=O)N1CC(c2ccc3c(c2)NC(=O)N(c2c(C)ccc4[nH]ncc24)C3)C1 [Compound 25, 7-(1-acryloylazetidin-3-yl)-3-(5-methyl-1H-indazol-4-yl)-3,4-dihydroquinazolin-2(1H)-one] | ++ (++ indicates binding activity from 5% to 50%)
C=CC(=O)N1CC(c2ccc3c(c2)cc(-c2cc(O)cc4ccccc24)n3CC(N)=O)C1 [Compound 40, 2-(5-(1-acryloylazetidin-3-yl)-2-(3-hydroxynaphthalen-1-yl)-1H-indol-1-yl)acetamide] | ++ (++ indicates binding activity from 5% to 50%)
C=CC(=O)N1CC(c2ccc3c(c2)CCCN(c2cccc4[nH]ncc24)C3)C1 [Compound 5, 1-(3-(2-(1H-indazol-4-yl)-2,3,4,5-tetrahydro-1H-benzo[c]azepin-7-yl)azetidin-1-yl)prop-2-en-1-one] | + (+ indicates binding activity up to 5%)
C=CC(=O)N1CC(NC(=O)c2ccc3c(-c4cc(O)cc5ccccc45)ccnc3c2)C1 [Compound 39, N-(1-acryloylazetidin-3-yl)-4-(3-hydroxynaphthalen-1-yl)quinoline-7-carboxamide] | ++ (++ indicates binding activity from 5% to 50%)
C=CC(=O)N1CC(c2ccc3c(c2)CN(c2c(C)ccc4[nH]ncc24)C3=O)C1 [Compound 9, 5-(1-acryloylazetidin-3-yl)-2-(5-methyl-1H-indazol-4-yl)isoindolin-1-one] | + (+ indicates binding activity up to 5%)
C=CC(=O)N1CC(c2ccc3c(c2)C(=O)N(c2cc(O)cc4ccccc24)C3)C1 [Compound 10, 6-(1-acryloylazetidin-3-yl)-2-(3-hydroxynaphthalen-1-yl)isoindolin-1-one] | ++ (++ indicates binding activity from 5% to 50%)
C=CC(=O)N1CC(c2ccc3c(c2)C(=O)N(c2c(C)ccc4[nH]ncc24)C3)C1 [Compound 11, 6-(1-acryloylazetidin-3-yl)-2-(5-methyl-1H-indazol-4-yl)isoindolin-1-one] | + (+ indicates binding activity up to 5%)
C=CC(=O)N1CC(c2ccc3cn(-c4c(C)ccc5[nH]ncc45)c(=O)cc3c2)C1 [Compound 23, 6-(1-acryloylazetidin-3-yl)-2-(5-methyl-1H-indazol-4-yl)isoquinolin-3(2H)-one] | + (+ indicates binding activity up to 5%)
C=CC(=O)N1CC(c2ccc3cc(-c4cc(O)cc5ccccc45)n(CC(N)=O)c3c2)C1 [Compound 34, 2-(6-(1-acryloylazetidin-3-yl)-2-(3-hydroxynaphthalen-1-yl)-1H-indol-1-yl)acetamide] | + (+ indicates binding activity up to 5%)
C=CC(=O)N1CC(c2ccc3c(c2)CN(c2cc(O)cc4ccccc24)C3)C1 [Compound 6, 1-(3-(2-(3-hydroxynaphthalen-1-yl)isoindolin-5-yl)azetidin-1-yl)prop-2-en-1-one] | +++ (+++ indicates binding activity greater than 50%)
C=CC(=O)N1CC(c2ccc3c(Nc4c(C)ccc5[nH]ncc45)ncnc3c2)C1 [Compound 38, 1-(3-(4-((5-methyl-1H-indazol-4-yl)amino)quinazolin-7-yl)azetidin-1-yl)prop-2-en-1-one] | + (+ indicates binding activity up to 5%)
C=CC(=O)N1CC(c2ccc3c(c2)NC(=O)N(c2cc(O)cc4ccccc24)C3)C1 [Compound 24, 7-(1-acryloylazetidin-3-yl)-3-(3-hydroxynaphthalen-1-yl)-3,4-dihydroquinazolin-2(1H)-one] | +++ (+++ indicates binding activity greater than 50%)
C=CC(=O)N1CC(c2ccc3cc(-c4cc(O)cc5ccccc45)ncc3c2)C1 [Compound 26, 1-(3-(3-(3-hydroxynaphthalen-1-yl)isoquinolin-7-yl)azetidin-1-yl)prop-2-en-1-one] | ++ (++ indicates binding activity from 5% to 50%)
C=CC(=O)N1CC(c2ccc3[nH]c(-c4cc(O)cc5ccccc45)cc3c2)C1 [Compound 14, 1-(3-(2-(3-hydroxynaphthalen-1-yl)-1H-indol-5-yl)azetidin-1-yl)prop-2-en-1-one] | +++ (+++ indicates binding activity greater than 50%)
C=CC(=O)N1CC(c2ccc3c(=O)n(-c4c(C)ccc5[nH]ncc45)ccc3c2)C1 [Compound 19, 6-(1-acryloylazetidin-3-yl)-2-(5-methyl-1H-indazol-4-yl)isoquinolin-1(2H)-one] | + (+ indicates binding activity up to 5%)
C=CC(=O)N1CC(c2ccc3cc(-c4c(C)ccc5[nH]ncc45)[nH]c3c2)C1 [Compound 35, 1-(3-(2-(5-methyl-1H-indazol-4-yl)-1H-indol-6-yl)azetidin-1-yl)prop-2-en-1-one] | + (+ indicates binding activity up to 5%)
C=CC(=O)N1CC(c2ccc3cc(-c4cc(O)cc5ccccc45)[nH]c3c2)C1 [Compound 33, 1-(3-(2-(3-hydroxynaphthalen-1-yl)-1H-indol-6-yl)azetidin-1-yl)prop-2-en-1-one] | ++ (++ indicates binding activity from 5% to 50%)
C=CC(=O)N1CC(c2ccc3c(=O)n(-c4cc(O)cc5ccccc45)ccc3c2)C1 [Compound 18, 6-(1-acryloylazetidin-3-yl)-2-(3-hydroxynaphthalen-1-yl)isoquinolin-1(2H)-one] | +++ (+++ indicates binding activity greater than 50%)
C=CC(=O)N1CC(c2ccc3cn(-c4cc(O)cc5ccccc45)c(=O)cc3c2)C1 [Compound 22, 6-(1-acryloylazetidin-3-yl)-2-(3-hydroxynaphthalen-1-yl)isoquinolin-3(2H)-one] | + (+ indicates binding activity up to 5%)
C=CC(=O)N1CC(Nc2cccc3c(-c4cc(O)cc5ccccc45)ccnc23)C1 [Compound 37, 1-(3-((4-(3-hydroxynaphthalen-1-yl)quinolin-8-yl)amino)azetidin-1-yl)prop-2-en-1-one] | +++ (+++ indicates binding activity greater than 50%)
